In publication PMC9516332 (Frontiers in Oncology, 2022):
Read-outs that look alike come from different tables or passages of the source.

What was measured:
Assay in all cases: Kinase panel profiling at 1 µmol/L (MSA or IMAP), percentage inhibition
Format in all cases: biochemical
[1] = biological target: T1, panel of 255 wild-type kinases (Homo sapiens, UniProt Q96PF2); settings: kinase TSSK2; 1 µmol/L single concentration; read-out: %-inhibition at 1 µmol/L, TSSK2
T1 sequence (Q96PF2 1-358): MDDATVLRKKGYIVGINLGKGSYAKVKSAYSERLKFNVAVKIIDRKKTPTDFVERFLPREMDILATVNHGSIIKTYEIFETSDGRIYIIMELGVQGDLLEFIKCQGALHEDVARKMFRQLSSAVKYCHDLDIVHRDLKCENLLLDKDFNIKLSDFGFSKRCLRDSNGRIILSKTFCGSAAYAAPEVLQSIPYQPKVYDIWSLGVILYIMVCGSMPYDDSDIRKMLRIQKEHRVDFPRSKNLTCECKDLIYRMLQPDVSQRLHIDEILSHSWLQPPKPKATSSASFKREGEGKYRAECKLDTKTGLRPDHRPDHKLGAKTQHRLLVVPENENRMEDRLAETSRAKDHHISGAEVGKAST

[2] = biological target: T2, panel of 255 wild-type kinases (Homo sapiens, UniProt P15735); settings: kinase PHKG2; 1 µmol/L single concentration; read-out: %-inhibition at 1 µmol/L, PHKG2
T2 sequence (P15735 1-406): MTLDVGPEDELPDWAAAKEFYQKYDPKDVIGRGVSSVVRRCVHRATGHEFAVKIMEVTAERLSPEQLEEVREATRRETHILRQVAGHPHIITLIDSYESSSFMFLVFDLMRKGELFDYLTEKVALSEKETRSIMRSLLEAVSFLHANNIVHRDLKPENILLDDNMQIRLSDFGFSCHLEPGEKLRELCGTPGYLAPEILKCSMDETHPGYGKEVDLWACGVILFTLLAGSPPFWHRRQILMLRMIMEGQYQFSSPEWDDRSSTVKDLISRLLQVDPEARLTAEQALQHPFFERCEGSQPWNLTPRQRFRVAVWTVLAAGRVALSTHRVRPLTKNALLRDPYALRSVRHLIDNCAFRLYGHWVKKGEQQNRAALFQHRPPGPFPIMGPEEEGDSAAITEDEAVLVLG

[3] = biological target: T3, panel of 255 wild-type kinases (Homo sapiens, UniProt P42680); settings: read-out: %-inhibition at 1 µmol/L, TEC
T3 sequence (P42680 1-631): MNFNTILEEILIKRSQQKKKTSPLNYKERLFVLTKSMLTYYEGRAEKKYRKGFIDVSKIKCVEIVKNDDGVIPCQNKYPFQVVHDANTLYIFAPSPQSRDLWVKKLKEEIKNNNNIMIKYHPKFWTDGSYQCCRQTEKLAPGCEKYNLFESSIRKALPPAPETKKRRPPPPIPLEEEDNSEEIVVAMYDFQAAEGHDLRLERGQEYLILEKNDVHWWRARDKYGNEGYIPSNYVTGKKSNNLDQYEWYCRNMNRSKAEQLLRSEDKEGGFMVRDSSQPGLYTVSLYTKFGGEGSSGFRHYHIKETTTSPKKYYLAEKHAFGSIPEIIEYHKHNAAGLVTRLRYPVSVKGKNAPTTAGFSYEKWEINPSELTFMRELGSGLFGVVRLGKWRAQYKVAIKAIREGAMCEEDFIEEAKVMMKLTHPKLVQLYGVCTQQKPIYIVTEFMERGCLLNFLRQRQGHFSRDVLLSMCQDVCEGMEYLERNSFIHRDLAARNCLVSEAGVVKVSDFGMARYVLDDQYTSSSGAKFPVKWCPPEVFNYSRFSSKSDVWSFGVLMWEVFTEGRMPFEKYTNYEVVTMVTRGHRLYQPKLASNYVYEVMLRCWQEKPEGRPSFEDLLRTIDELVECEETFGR

[4] = biological target: panel of 255 wild-type kinases (Homo sapiens, UniProt P23458); settings: kinase JAK1; 1 µmol/L single concentration; read-out: %-inhibition at 1 µmol/L, JAK1
[5] = biological target: panel of 255 wild-type kinases (Homo sapiens, UniProt P04626); settings: kinase HER2; 1 µmol/L single concentration; read-out: %-inhibition at 1 µmol/L, HER2
[6] = biological target: panel of 255 wild-type kinases (Homo sapiens, UniProt P05771); settings: kinase PKCβ1; 1 µmol/L single concentration; read-out: %-inhibition at 1 µmol/L, PKCβ1
[7] = biological target: T4, panel of 255 wild-type kinases (Homo sapiens, UniProt P29320); settings: kinase EPHA3; 1 µmol/L single concentration; read-out: %-inhibition at 1 µmol/L, EPHA3
T4 sequence (P29320 21-983): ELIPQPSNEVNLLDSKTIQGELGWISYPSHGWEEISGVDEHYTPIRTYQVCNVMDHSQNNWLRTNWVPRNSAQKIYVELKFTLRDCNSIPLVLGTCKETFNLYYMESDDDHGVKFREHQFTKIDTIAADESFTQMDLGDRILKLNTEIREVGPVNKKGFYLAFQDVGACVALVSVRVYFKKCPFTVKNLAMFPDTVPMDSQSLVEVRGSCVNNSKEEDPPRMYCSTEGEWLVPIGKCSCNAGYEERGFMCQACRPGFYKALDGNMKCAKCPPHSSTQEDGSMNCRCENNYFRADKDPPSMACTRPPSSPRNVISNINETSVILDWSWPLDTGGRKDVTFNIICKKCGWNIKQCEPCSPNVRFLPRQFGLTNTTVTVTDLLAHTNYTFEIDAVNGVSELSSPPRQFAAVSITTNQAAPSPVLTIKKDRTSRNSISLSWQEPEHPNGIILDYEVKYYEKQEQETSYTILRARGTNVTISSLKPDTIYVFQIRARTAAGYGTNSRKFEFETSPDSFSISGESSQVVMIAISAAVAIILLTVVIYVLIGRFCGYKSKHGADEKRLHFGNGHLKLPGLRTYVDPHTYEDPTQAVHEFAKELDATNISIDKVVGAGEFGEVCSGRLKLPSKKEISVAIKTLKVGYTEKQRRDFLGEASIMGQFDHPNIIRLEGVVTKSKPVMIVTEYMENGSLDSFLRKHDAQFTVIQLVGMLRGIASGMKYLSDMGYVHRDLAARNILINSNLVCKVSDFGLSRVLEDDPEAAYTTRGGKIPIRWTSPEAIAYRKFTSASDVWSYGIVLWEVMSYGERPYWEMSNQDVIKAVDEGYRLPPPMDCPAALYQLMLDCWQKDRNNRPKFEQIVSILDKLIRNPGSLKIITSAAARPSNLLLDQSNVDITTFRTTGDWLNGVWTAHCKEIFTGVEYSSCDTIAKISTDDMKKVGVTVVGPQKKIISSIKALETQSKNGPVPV

[8] = biological target: panel of 255 wild-type kinases (Homo sapiens, UniProt Q96RG2); settings: PASK; 1 µmol/L single concentration; read-out: %-inhibition, PASK
[9] = kinase TEC, 1 µmol/L single concentration

Row | Structure (SMILES) | inhibition at 1 µM [1] | inhibition at 1 µM [2] | inhibition at 1 µM [3, 9] | inhibition at 1 µM [4] | inhibition at 1 µM [5] | inhibition at 1 µM [6] | inhibition at 1 µM [7] | inhibition at 1 µM [8] | inhibition at 1 µM [3]
1 | CO[C@]1(C(=O)N[C@@H](C)c2ccc(-n3cc(F)cn3)nc2)CC[C@H](c2nc(C)cc(Nc3cc(C)[nH]n3)n2)CC1 [pralsetinib] | 8% | 2.24% | 95% | 101% | 20% | 2.58% | 32% | -2.38% | 
2 | COc1cc2ncnc(Nc3ccc(F)c(Cl)c3)c2cc1NC(=O)/C=C/CN1CCCCC1 [dacomitinib] | 1.2% | 11% | 20% | 0.444% | 100% | 3.74% | 11% | 5.35% | 
3 | CCn1c(=O)c(-c2cc(NC(=O)Nc3ccccc3)c(F)cc2Br)cc2cnc(NC)cc21 [ripretinib] | -3.73% | 1.5% | 5.66% | 26% | 5.51% | 1.06% | 88% | -1% | 
4 | Cc1nc(NC(=O)N2CCC[C@H]2C(N)=O)sc1-c1ccnc(C(C)(C)C(F)(F)F)c1 [alpelisib] | -6% | 1.64% | -0.644% | -8% | 19% | 7% | -0.173% | -2% | 
5 | C=CC(=O)N1CCC([C@@H]2CCNc3c(C(N)=O)c(-c4ccc(Oc5ccccc5)cc4)nn32)CC1 [zanubrutinib] | 0.571% | 4.22% |  | -3% | 69% | 0.363% | -0.0989% | -2.55% | 96%
6 | O=C(Nc1cnn2ccc(N3CCC[C@@H]3c3cc(F)ccc3F)nc12)N1CC[C@H](O)C1 [larotrectinib] | -0.476% | 5.63% | 1.59% | 0.894% | -2.32% | -2.11% | 0.702% | 0.745% | 
7 | Cc1cc(Nc2ncnc3ccc(NC4=NC(C)(C)CO4)cc23)ccc1Oc1ccn2ncnc2c1 [tucatinib] | -0.922% | -0.185% | 18% | 2.72% | 101% | 0.869% | -10% | 0.181% | 
8 | FC(F)(F)c1ccc(CNc2ccc(Cc3c[nH]c4ncc(Cl)cc34)cn2)cn1 [pexidartinib] | -0.308% | 4.25% | -0.0585% | 7% | 6% | 4.22% | 2.11% | 6% | 
9 | Cn1cnc2c(F)c(Nc3ccc(Br)cc3F)c(C(=O)NOCCO)cc21 [binimetinib] | -5% | -3.26% | 0.674% | 5% | 1.43% | -3.39% | 0.248% | -2.45% | 
10 | CN1CCN(c2ccc(C(=O)Nc3n[nH]c4ccc(Cc5cc(F)cc(F)c5)cc34)c(NC3CCOCC3)c2)CC1 [entrectinib] | -7% | 41% | 97% | 91% | 22% | 12% | 30% | 1.19% | 
11 | COC(=O)N[C@@H](C)CNc1nccc(-c2cn(C(C)C)nc2-c2cc(Cl)cc(NS(C)(=O)=O)c2F)n1 [encorafenib] | -2.44% | -1.79% | -1.53% | 3.6% | 4.47% | -1% | 4% | -3% | 
12 | C[C@H]1Oc2cc(cnc2N)-c2c(nn(C)c2C#N)CN(C)C(=O)c2ccc(F)cc21 [lorlatinib] | 56% | 92% | 3% | -0.817% | 21% | 7% | 4.35% | 0.792% | 
13 | CCN1CCN(c2ccc(Nc3cc(N(C)C(=O)Nc4c(Cl)c(OC)cc(OC)c4Cl)ncn3)cc2)CC1 [infigratinib] | -3.74% | 1.64% | 7% | 2.57% | 4.73% | 5% | -0.311% | -1.46% | 
14 | COc1ccc(CN2C3CC2CN(c2ccc(-c4cc(OCC(C)(C)O)cn5ncc(C#N)c45)cn2)C3)cn1 [selpercatinib] | -0.889% | 6.5% | 37% | 6% | 2.47% | -0.445% | 49% | -2.29% | 
15 | Cn1cnc2c(F)c(Nc3ccc(Br)cc3Cl)c(C(=O)NOCCO)cc21 [selumetinib] | -4.25% | 3.3% | 16% | 2.46% | 3% | 2.44% | -8% | -2% | 
